The target of this assay is T1, HiBiT tagged PARP14 (Homo sapiens, UniProt Q460N5).
T1 construct: engineered to contain a HiBiT tag on both alleles of the PARP14 gene; endogenous in cells; host or cells: Jurkat cells stably transfected with LgBiT (Promega), PARP14 locus edited by CRISPR/Cas9
Put plainly: HiBiT assay for the degradation of PARP14 (HiBiT tagged PARP14 in LgBiT expressing Jurkat cells, 2 or 24 hours). The class given is cell-based. The following applies: Assay B (Example B): HiBiT tagged PARP14 degradation in LgBiT expressing Jurkat cells, read-out: DC50. Here is the method:
Jurkat cells stably transfected with LgBiT (Promega) were engineered to contain a HiBiT tag on both alleles of the PARP14 gene (Genbank Accession Number: NM_017554) via CRISPR/Cas9 editing. The HiBiT tag is an 11 amino acid tag created by Promega that associates with LgBiT protein to form the NanoLuc® tag on the C-terminus of PARP14. Clones were isolated and confirmed for the HiBiT tag via Sanger sequencing.
Degradation of PARP14 protein was assessed by measuring the luminescence of the HiBiT tag associating with the LgBiT protein as a proxy for the PARP14 protein.
Jurkat cells were diluted to 250,000 cells per mL and then added to assay plate (Corning 3574) using a Multidrop (Thermo Fisher) to add 20 μL per well of the 384 well plate, resulting in 5,000 cells per well. 20 nL of a dose response curve diluted in DMSO of each test compound was added to the cell plate using a Mosquito (TTP Labtech) and the plate was incubated at 37° C. for 2 or 24 hours. Assay plate was brought to room temperature then 5 μL per well of Live Cell Substrate (Promega) was added to the plate. Luminescence was measured on an Envision (Perkin Elmer).
The average DMSO was calculated from 32 wells containing 0.1% DMSO only in columns 12 and 24 of the assay plate. The % of DMSO values were calculated as described below: […]
The % of DMSO values were plotted as a function of compound concentration and the following 4-parameter fit was applied to derive the DC50 values:
where top, bottom, and Hill Coefficient are allowed to float. Y is the % of DMSO and X is the compound concentration.
DC50 data for the Example compounds is provided below in Table 2 (“+” is ≤0.03 μM; “++” is ≥0.03 μM).
(HiBiT is a short tag that completes a luciferase, so light tracks the accessible tagged protein.)

This passage reports DC50 results from US20240101540A1, “TARGETED PROTEIN DEGRADATION OF PARP14 FOR USE IN THERAPY” (Ribon Therapeutics, Inc., priority 2022, published 2024).

A word on the DC50: it is the midpoint of the concentration-degradation curve.

The structures appear in SMILES notation. Where a name gives a salt, the structure may show the parent alone.

T1 sequence (Q460N5 whole entry): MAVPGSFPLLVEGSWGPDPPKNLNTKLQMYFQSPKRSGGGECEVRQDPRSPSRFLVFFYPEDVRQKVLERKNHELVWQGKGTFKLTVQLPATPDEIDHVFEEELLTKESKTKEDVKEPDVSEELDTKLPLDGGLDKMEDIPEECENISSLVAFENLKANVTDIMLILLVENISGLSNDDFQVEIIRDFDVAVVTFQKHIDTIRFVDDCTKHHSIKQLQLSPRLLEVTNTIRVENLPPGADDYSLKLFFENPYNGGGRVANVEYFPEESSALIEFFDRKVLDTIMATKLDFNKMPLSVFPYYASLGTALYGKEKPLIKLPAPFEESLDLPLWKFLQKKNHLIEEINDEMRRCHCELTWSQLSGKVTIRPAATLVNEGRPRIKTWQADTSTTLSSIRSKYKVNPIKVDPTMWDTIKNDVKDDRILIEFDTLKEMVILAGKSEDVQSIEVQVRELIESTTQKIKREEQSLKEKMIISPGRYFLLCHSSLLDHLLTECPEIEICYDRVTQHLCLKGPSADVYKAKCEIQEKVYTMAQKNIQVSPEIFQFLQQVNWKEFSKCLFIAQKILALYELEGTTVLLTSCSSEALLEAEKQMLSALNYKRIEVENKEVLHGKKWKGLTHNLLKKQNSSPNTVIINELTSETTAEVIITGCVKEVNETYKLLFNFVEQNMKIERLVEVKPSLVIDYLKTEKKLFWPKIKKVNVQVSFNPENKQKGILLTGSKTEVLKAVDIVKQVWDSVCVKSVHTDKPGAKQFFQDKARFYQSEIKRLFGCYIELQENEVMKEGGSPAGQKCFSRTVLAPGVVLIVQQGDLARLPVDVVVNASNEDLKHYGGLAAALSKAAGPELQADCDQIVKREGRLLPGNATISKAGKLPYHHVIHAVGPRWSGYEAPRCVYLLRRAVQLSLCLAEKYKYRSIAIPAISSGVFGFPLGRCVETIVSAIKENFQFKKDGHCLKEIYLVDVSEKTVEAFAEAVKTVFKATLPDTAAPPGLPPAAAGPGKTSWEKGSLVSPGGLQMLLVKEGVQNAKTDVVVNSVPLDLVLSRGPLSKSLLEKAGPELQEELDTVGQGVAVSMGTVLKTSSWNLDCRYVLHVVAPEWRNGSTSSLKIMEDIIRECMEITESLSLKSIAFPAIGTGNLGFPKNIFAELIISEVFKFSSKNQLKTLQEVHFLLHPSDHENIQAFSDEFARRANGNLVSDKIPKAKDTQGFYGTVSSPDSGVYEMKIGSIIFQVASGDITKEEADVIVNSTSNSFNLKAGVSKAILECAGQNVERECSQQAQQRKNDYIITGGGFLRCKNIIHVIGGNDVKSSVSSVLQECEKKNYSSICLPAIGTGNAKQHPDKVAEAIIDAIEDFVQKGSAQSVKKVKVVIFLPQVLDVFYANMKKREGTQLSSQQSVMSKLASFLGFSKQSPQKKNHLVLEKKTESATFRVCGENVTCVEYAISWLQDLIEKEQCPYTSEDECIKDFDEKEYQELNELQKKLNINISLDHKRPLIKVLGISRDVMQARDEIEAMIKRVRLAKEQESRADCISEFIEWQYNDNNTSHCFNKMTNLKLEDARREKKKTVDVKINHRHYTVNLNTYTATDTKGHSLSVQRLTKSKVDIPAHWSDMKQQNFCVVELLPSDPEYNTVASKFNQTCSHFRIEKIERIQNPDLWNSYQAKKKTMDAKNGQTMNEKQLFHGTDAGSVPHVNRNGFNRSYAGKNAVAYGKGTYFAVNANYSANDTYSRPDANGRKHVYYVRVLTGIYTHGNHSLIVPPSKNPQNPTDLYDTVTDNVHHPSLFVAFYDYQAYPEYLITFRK

As to `O=C1CCC(Nc2ccc(N3CC(N4CCN(CCOc5cc(F)c6c(=O)[nH]c(CSC7CCOCC7)nc6c5)CC4)C3)cc2)C(=O)N1` (centres unmarked) [Example 130, 3-((4-(3-(4-(2-((5-fluoro-4-oxo-2-(((tetrahydro-2H-pyran-4-yl)thio)methyl)-3,4-dihydroquinazolin-7-yl)oxy)ethyl)piperazin-1-yl)azetidin-1-yl)phenyl)amino)piperidine-2,6-dione], the DC50 is less than 30 nM.
Turning to `[2H]C1([2H])N(CCN2CCC(COc3cc(F)c4c(=O)[nH]c(CSC5CCOCC5)nc4c3)CC2)C([2H])([2H])C([2H])([2H])N(c2ccc(NC3CCC(=O)NC3=O)cc2)C1([2H])[2H]` (centres unmarked) [Example 131, 3-((4-(4-(2-(4-(((5-fluoro-4-oxo-2-(((tetrahydro-2H-pyran-4-yl)thio)methyl)-3,4-dihydroquinazolin-7-yl)oxy)methyl)piperidin-1-yl)ethyl)piperazin-1-yl-2,2,3,3,5,5,6,6-d8)phenyl)amino)piperidine-2,6-dione], the DC50 is less than 30 nM.
The same measure for `O=C1CCC(Nc2ccc(-c3ccc(CCN4CCC(COc5cc(F)c6c(=O)[nH]c(CSC7CCOCC7)nc6c5)CC4)cn3)cc2)C(=O)N1` (centres unmarked) [Example 132]: less than 30 nM.
The same measure for `O=C1CCC(Nc2ccc(-c3ccc(CCN4CCC(COc5cc(F)c6c(=O)[nH]c(CSC7CCOCC7)nc6c5)CC4)nc3)cc2)C(=O)N1` (centres unmarked) [Example 133]: less than 30 nM.
In the case of `O=C1CCC(NC(=O)C23CC(N4CCN(CCN5CCC(COc6cc(F)c7c(=O)[nH]c(CSC8CCOCC8)nc7c6)CC5)CC4)(C2)C3)C(=O)N1` (centres unmarked) [Example 134, N-(2,6-dioxopiperidin-3-yl)-3-(4-(2-(4-(((5-fluoro-4-oxo-2-(((tetrahydro-2H-pyran-4-yl)thio)methyl)-3,4-dihydroquinazolin-7-yl)oxy)methyl)piperidin-1-yl)ethyl)piperazin-1-yl)bicyclo[1.1.1]pentane-1-carboxamide] it was less than 30 nM.
For the molecule `O=C1CCC(Nc2ccc(N3CCC(N4CCC(COc5cc(F)c6c(=O)[nH]c(COC7CCOCC7)nc6c5)CC4)CC3)c(F)c2)C(=O)N1` (centres unmarked) [Example 135, 3-((3-fluoro-4-(4-(((5-fluoro-4-oxo-2-(((tetrahydro-2H-pyran-4-yl)oxy)methyl)-3,4-dihydroquinazolin-7-yl)oxy)methyl)-[1,4′-bipiperidin]-1′-yl)phenyl)amino)piperidine-2,6-dione formate], the half-maximal degradation concentration (DC50) was less than 30 nM.
Turning to `O=C1CCC(Nc2ccc(N3CCC(N4CC(N5CCC(COc6cc(F)c7c(=O)[nH]c(COC8CCOCC8)nc7c6)CC5)C4)CC3)c(F)c2)C(=O)N1` (centres unmarked) [Example 136, 3-((3-fluoro-4-(4-(3-(4-(((5-fluoro-4-oxo-2-(((tetrahydro-2H-pyran-4-yl)oxy)methyl)-3,4-dihydroquinazolin-7-yl)oxy)methyl)piperidin-1-yl)azetidin-1-yl)piperidin-1-yl)phenyl)amino)piperidine-2,6-dione], the DC50 is less than 30 nM.
On to `O=C1CCC(Nc2ccc(N3CCN(CCN4CCC(COc5cc(F)c6c(=O)[nH]c(CSC7CCOCC7)nc6c5)CC4)CC3)c(Cl)c2)C(=O)N1` (centres unmarked) [Example 137], for which the DC50 was less than 30 nM.
In the case of `O=C1CCC(Nc2ccc(N3CC4(CCC(N5CCC(COc6cc(F)c7c(=O)[nH]c(CSC8CCOCC8)nc7c6)CC5)CC4)C3)cc2)C(=O)N1` (centres unmarked) [Example 138] it was less than 30 nM; in that of `COc1cc(N2CCC(N3CC(N4CCC(COc5cc(F)c6c(=O)[nH]c(CSC7CCOCC7)nc6c5)CC4)C3)CC2)c(F)cc1NC1CCC(=O)NC1=O` (centres unmarked) [Example 139], less than 30 nM.
The same measure for `COc1cc(N2CCN(CCN3CCC(COc4cc(F)c5c(=O)[nH]c(CSC6CCOCC6)nc5c4)CC3)CC2)c(F)cc1NC1CCC(=O)NC1=O` (centres unmarked) [Example 140]: less than 30 nM.
In the case of `O=C1CCC(Nc2cc(F)c(N3CCN(CCN4CCC(COc5cc(F)c6c(=O)[nH]c(CSC7CCOCC7)nc6c5)CC4)CC3)cc2F)C(=O)N1` (centres unmarked) [Example 141] it was less than 30 nM; in that of `O=C1CCC(Nc2ccc(N3CCC(N4CC(N5CCC(COc6cc(F)c7c(=O)[nH]c(CSC8CCOCC8)nc7c6)CC5)C4)CC3)c(Cl)c2)C(=O)N1` (centres unmarked) [Example 142], less than 30 nM; in that of `O=C1CCC(Nc2ccc(N3CCC4(CC3)CC(N3CCC(COc5cc(F)c6c(=O)[nH]c(CSC7CCOCC7)nc6c5)CC3)C4)c(F)c2)C(=O)N1` (centres unmarked) [Example 143, 3-((3-fluoro-4-(2-(4-(((5-fluoro-4-oxo-2-(((tetrahydro-2H-pyran-4-yl)thio)methyl)-3,4-dihydroquinazolin-7-yl)oxy)methyl)piperidin-1-yl)-7-azaspiro[3.5]nonan-7-yl)phenyl)amino)piperidine-2,6-dione], less than 30 nM.
Regarding `O=C1CCC(Nc2ccc(N3CCC(CN4CCC(COc5cc(F)c6c(=O)[nH]c(CSC7CCOCC7)nc6c5)CC4)CC3)c(F)c2)C(=O)N1` (centres unmarked) [Example 144, 3-((3-fluoro-4-(4-((4-(((5-fluoro-4-oxo-2-(((tetrahydro-2H-pyran-4-yl)thio)methyl)-3,4-dihydroquinazolin-7-yl)oxy)methyl)piperidin-1-yl)methyl)piperidin-1-yl)phenyl)amino)piperidine-2,6-dione], the DC50 was less than 30 nM.
`O=C1CCC(Nc2ccc(N3CC(N4CCC(N5CCC(COc6cc(F)c7c(=O)[nH]c(CSC8CCOCC8)nc7c6)CC5)CC4)C3)c(F)c2)C(=O)N1` (centres unmarked) [Example 145]: the DC50 is less than 30 nM.
For `O=C1CCC(Nc2ccc(N3CCC(N4CC(N5CCC(COc6cc(F)c7c(=O)[nH]c(CCC8CCOCC8)nc7c6)CC5)C4)CC3)c(F)c2)C(=O)N1` (centres unmarked) [Example 146, 3-((3-fluoro-4-(4-(3-(4-(((5-fluoro-4-oxo-2-(2-(tetrahydro-2H-pyran-4-yl)ethyl)-3,4-dihydroquinazolin-7-yl)oxy)methyl)piperidin-1-yl)azetidin-1-yl)piperidin-1-yl)phenyl)amino)piperidine-2,6-dione formate], the DC50 is less than 30 nM.
Turning to `CN(c1ccc(NC2CCC(=O)NC2=O)cc1F)C1CC(CN2CCC(COc3cc(F)c4c(=O)[nH]c(CSC5CCOCC5)nc4c3)CC2)C1` (centres unmarked) [Example 147, 3-((3-fluoro-4-((3-((4-(((5-fluoro-4-oxo-2-(((tetrahydro-2H-pyran-4-yl)thio)methyl)-3,4-dihydroquinazolin-7-yl)oxy)methyl)piperidin-1-yl)methyl)cyclobutyl)(methyl)amino)phenyl)amino)piperidine-2,6-dione], the DC50 was less than 30 nM.
The same measure for `O=C1CCC(Nc2ccc(N3CC(N4CC(N5CCC(COc6cc(F)c7c(=O)[nH]c(CSC8CCOCC8)nc7c6)CC5)C4)C3)c(F)c2)C(=O)N1` (centres unmarked) [Example 148, 3-((3-fluoro-4-(3-(4-(((5-fluoro-4-oxo-2-(((tetrahydro-2H-pyran-4-yl)thio)methyl)-3,4-dihydroquinazolin-7-yl)oxy)methyl)piperidin-1-yl)-[1,3′-biazetidin]-1′-yl)phenyl)amino)piperidine-2,6-dione formate]: less than 30 nM; for `O=C1CCC(NC(=O)c2ccc(N3CCC(N4CCC(COc5cc(F)c6c(=O)[nH]c(CSC7CCOCC7)nc6c5)CC4)CC3)cc2F)C(=O)N1` (centres unmarked) [Example 149, N-(2,6-dioxopiperidin-3-yl)-2-fluoro-4-(4-(((5-fluoro-4-oxo-2-(((tetrahydro-2H-pyran-4-yl)thio)methyl)-3,4-dihydroquinazolin-7-yl)oxy)methyl)-[1,4′-bipiperidin]-1′-yl)benzamide]: less than 30 nM.
For the molecule `O=C1CCC(Nc2ccc(NC3CC(CN4CCC(COc5cc(F)c6c(=O)[nH]c(CSC7CCOCC7)nc6c5)CC4)C3)c(F)c2)C(=O)N1` (centres unmarked) [Example 150, 3-((3-fluoro-4-((3-((4-(((5-fluoro-4-oxo-2-(((tetrahydro-2H-pyran-4-yl)thio)methyl)-3,4-dihydroquinazolin-7-yl)oxy)methyl)piperidin-1-yl)methyl)cyclobutyl)amino)phenyl)amino)piperidine-2,6-dione formate], the DC50 is less than 30 nM.
With `O=C1CCC(NC(=O)c2ccc(N3CCC(N4CC(N5CCC(COc6cc(F)c7c(=O)[nH]c(CSC8CCOCC8)nc7c6)CC5)C4)CC3)cc2F)C(=O)N1` (centres unmarked) [Example 151, N-(2,6-dioxopiperidin-3-yl)-2-fluoro-4-(4-(3-(4-(((5-fluoro-4-oxo-2-(((tetrahydro-2H-pyran-4-yl)thio)methyl)-3,4-dihydroquinazolin-7-yl)oxy)methyl)piperidin-1-yl)azetidin-1-yl)piperidin-1-yl)benzamide], the DC50 was less than 30 nM.
The same measure for `O=C1CCC(Nc2ccc(N3CCC(C(=O)N4CC(N5CCC(COc6cc(F)c7c(=O)[nH]c(CSC8CCOCC8)nc7c6)CC5)C4)CC3)c(F)c2)C(=O)N1` (centres unmarked) [Example 152, 3-((3-fluoro-4-(4-(3-(4-(((5-fluoro-4-oxo-2-(((tetrahydro-2H-pyran-4-yl)thio)methyl)-3,4-dihydroquinazolin-7-yl)oxy)methyl)piperidin-1-yl)azetidine-1-carbonyl)piperidin-1-yl)phenyl)amino)piperidine-2,6-dione formate]: less than 30 nM.
